Several values for one entry are separate records, joined by “and”; a condition that tells them apart may be missing. Equal entries are not always repeated.
Tested on: Cmm
Test: Agar well diffusion assay against Cmm
Format: cell-based, Clavibacter michiganensis subsp. michiganensis
Protocol: In addition, the antibacterial activity of various fractions and the purified antibiotic produced by B. pumilus was assessed via agar well diffusion assay. Cmm was grown as described above and a suspension of 100 μL was evenly spread over fresh NBYA plates using sterile spreader. Wells of 6 mm diameter were carefully made in the agar and 50 μL of the test fraction or antibiotic test sample extracted from B. pumilus was poured into the agar well. Sterilized distilled water served as a control treatment.
The antimicrobial activities of Micrococcin P1 at various concentrations were assessed via agar well diffusion assay. A cell suspension of Cmm was overlaid on NBYA and the plates were allowed to air dry. A 50 μL drop of Micrococcin P1 diluted in various concentrations were applied into agar well.

Substance: Micrococcin P1
- antibacterial activity against Cmm, zone of inhibition around the well (50 μL in 6 mm agar well, NBYA, 28° C., 3 days): antimicrobial activity against Cmm
- concentration having the most significant effects (highest concentration tested): 5 mg/L and 4.37 μM
- amount per well needed for growth inhibition zones (per well in 50 μL, NBYA, 3 days 28° C.): ≥ 7.8125 ng
- dose dependence of antibacterial activities (various concentrations, FIG. 7): increased proportional to the Micrococcin P1 concentrations
